Measurements as given in ChEMBL document CHEMBL4725338, “Discovery of novel histone lysine methyltransferase G9a/GLP (EHMT2/1) inhibitors: Design, synthesis, and structure-activity relationships of 2,4-diamino-6-methylpyrimidines” (Bioorg Med Chem Lett, 2020).
Converted amounts (≈) assume the structure as drawn. The source made the active and inactive calls. The calls are words filed in the database; no cut-off is given here.

Legend:
[1] = target: T1, Histone-lysine N-methyltransferase EHMT2 (Homo sapiens, UniProt Q96KQ7); assay: Inhibition G9a (unknown origin)
T1 sequence (Q96KQ7 whole entry): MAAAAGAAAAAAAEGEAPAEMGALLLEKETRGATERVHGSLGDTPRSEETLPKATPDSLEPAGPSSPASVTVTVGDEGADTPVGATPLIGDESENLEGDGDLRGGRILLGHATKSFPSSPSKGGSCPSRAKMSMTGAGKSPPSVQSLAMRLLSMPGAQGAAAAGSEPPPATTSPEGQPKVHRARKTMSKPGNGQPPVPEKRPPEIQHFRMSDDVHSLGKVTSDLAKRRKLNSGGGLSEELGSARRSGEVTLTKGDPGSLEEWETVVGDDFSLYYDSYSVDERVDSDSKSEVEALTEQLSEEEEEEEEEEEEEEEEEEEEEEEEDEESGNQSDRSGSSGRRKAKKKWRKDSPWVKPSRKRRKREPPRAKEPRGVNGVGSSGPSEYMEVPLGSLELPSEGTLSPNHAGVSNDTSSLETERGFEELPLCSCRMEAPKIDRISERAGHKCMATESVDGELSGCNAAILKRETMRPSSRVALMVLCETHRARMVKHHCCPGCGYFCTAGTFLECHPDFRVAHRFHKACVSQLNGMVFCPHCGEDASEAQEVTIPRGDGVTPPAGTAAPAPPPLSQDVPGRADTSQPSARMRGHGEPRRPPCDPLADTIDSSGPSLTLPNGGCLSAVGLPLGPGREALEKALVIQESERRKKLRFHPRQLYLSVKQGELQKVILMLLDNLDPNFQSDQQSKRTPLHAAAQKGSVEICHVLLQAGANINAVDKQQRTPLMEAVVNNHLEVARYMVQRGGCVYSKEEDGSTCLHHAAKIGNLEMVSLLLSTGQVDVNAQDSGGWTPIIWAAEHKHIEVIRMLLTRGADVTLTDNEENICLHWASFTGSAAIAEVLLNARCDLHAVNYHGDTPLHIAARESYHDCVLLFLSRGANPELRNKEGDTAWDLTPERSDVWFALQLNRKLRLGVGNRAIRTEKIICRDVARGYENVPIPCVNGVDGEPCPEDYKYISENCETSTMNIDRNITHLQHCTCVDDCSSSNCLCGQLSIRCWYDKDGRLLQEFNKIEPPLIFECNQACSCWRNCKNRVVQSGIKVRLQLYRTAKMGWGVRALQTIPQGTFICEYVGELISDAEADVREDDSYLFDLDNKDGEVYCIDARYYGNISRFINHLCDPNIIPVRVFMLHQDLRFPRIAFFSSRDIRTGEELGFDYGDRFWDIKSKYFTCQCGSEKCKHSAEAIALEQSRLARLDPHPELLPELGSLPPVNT

[2] = target: T2, Histone-lysine N-methyltransferase EHMT1 (Homo sapiens, UniProt Q9H9B1); assay: Inhibition of GLP (unknown origin)
T2 sequence (Q9H9B1 whole entry): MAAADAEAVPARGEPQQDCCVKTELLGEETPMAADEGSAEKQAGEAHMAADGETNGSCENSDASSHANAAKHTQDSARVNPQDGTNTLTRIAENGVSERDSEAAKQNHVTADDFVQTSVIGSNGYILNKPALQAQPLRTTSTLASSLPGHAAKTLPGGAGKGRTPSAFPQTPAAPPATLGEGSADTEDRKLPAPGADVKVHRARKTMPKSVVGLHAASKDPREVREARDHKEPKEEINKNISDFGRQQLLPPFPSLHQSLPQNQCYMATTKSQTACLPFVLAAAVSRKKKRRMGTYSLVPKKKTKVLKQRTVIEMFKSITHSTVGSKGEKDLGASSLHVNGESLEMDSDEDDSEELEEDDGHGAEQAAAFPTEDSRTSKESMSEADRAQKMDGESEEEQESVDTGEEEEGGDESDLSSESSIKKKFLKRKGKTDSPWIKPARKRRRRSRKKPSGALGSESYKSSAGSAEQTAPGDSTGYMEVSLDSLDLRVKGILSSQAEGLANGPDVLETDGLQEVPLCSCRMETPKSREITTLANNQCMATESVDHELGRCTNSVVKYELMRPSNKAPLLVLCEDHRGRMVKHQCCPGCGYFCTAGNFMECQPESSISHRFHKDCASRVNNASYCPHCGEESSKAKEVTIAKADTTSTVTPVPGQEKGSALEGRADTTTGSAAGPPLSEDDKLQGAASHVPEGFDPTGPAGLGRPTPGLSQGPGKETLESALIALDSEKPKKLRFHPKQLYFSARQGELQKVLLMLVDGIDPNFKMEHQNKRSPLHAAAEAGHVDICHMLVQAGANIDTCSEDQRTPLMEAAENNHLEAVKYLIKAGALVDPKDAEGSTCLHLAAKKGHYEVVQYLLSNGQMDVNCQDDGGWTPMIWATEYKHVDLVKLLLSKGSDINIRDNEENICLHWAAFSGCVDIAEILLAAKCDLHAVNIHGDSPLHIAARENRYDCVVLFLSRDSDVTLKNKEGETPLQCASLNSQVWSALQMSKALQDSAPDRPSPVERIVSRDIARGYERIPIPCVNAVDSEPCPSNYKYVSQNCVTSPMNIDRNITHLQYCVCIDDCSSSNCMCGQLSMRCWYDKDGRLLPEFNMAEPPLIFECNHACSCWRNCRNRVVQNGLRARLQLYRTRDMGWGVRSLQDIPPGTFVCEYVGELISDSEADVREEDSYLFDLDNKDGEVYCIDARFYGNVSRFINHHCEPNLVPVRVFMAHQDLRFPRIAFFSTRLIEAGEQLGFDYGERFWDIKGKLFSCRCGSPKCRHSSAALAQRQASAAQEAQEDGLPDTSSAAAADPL

[3] = tested on: CD34-positive (myeloid/lymphoid) cell; assay: Induction of fetal globin in human CD34+ cells assessed as switching of mRAN expression from adult beta-globin to fetal type gamma globin at 0.3 to 1 uM by qRT-PCR analysis; format: functional, cell-based
[4] = Lipophilicity, log D of compound; format: physicochemical; details: octanol/water
[5] = Aqueous solubility of the compound in pH 1.2 JP1 fluid; format: physicochemical
[6] = Metabolic stability in mouse liver microsomes assessed as compound remaining at 0.5 mg/mL incubated for 0.5 hrs; format: ADME, Microsome; details: read-out: Stabilty
[7] = Metabolic stability in monkey liver microsomes assessed as compound remaining at 0.5 mg/mL incubated for 0.5 hrs; format: ADME, Macaca mulatta, Microsome; details: rhesus monkey, read-out: Stabilty
CYP2C9 = CYP2C9 (Homo sapiens, UniProt P11712); assay: Inhibition of CYP2C9 (unknown origin) at 10 uM relative to control; format: ADME
CYP3A4 [8] = target: T3, CYP3A4 (Homo sapiens, UniProt P08684); assay: Inhibition of CYP3A4 (unknown origin) at 10 uM relative to control; format: ADME
CYP3A4 [9] = target: T3, CYP3A4; assay: Mechanism based inhibition of CYP3A4 in human liver microsome assessed as remaining percentage at 100 uM in presence of substrate ACN preincubated 30 mins followed by substrate addition relative to control; format: ADME; details: liver microsomes, probe ACN (so in the source), read-out: Activity
[10] = Tmax in mouse at 10 mg/kg, po; format: ADME, organism-based; details: in vivo
[11] = Half-life in mouse at 1 mg/kg, iv; format: ADME, organism-based; details: in vivo

T3 sequence (P08684 whole entry): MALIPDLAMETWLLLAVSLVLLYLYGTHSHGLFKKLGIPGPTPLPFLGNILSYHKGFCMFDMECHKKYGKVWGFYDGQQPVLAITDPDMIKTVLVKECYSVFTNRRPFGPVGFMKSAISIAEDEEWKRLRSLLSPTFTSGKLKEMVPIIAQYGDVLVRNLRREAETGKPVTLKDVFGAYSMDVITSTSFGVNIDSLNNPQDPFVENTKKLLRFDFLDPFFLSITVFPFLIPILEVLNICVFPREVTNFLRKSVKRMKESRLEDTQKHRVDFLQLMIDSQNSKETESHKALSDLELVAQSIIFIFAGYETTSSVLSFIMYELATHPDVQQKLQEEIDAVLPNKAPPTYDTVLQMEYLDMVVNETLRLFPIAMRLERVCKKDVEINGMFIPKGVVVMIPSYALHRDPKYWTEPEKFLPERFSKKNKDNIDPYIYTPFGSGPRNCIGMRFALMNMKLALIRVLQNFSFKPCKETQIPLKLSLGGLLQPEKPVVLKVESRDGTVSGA
Chain of CYP2C9 (P11712 whole entry): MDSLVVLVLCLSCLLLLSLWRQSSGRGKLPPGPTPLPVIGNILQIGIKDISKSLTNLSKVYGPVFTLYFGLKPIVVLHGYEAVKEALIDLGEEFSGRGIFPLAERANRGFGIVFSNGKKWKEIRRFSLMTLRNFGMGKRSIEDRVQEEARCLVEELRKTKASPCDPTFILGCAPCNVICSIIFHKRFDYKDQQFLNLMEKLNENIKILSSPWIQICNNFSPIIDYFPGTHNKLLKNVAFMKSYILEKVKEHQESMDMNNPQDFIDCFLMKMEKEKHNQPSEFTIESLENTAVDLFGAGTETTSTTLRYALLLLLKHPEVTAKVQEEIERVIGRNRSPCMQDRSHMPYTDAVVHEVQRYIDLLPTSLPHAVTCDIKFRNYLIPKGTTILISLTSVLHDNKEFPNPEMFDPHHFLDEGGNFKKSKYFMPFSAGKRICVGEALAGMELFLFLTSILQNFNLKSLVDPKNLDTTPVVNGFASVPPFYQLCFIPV

Row | Structure (SMILES) | IC50 [1] [nM] | IC50 [2] [nM] | Activity [3] | logD [4] | solubility [5] [µg/mL] | remaining at 0.5 h [6] [%] | remaining at 0.5 h [7] [%] | inhibition at 10 µM (CYP2C9) [%] | inhibition at 10 µM (CYP3A4 [8]) [%] | activity at 30 min, 100 µM (CYP3A4 [9]) [%] | Tmax [10] [h] | half-life [11] [h]
1 | CNc1cc(C)nc(Nc2ccc(OC)c(C3=CCNCCC3)c2)n1 | 4.31 | 32.3 | Active | 0.5 | 680 (≈ 2000 µM) | 34 | 24 | 0 | 0 | 80.5 | 2 | 7
2 | CNc1cc(C)nc(Nc2ccc(OC)c(OCCCN3CCCC3)c2)n1 | 16.9 | 185 | Active | 0.8 | 740 (≈ 1990 µM) | 48 | 8 | 0 | 8 | 93.6 | 5.5 | 4
